Laboratory results as given in ChEMBL document CHEMBL3232833, “5,10-seco-neo-clerodanes and neo-clerodanes from Salvia microphylla” (J Nat Prod, 2014).

Key:
MCF7 = test: Cytotoxicity against human MCF7 cells after 48 hrs by sulforhodamine B method; format: functional, cell-based; details: MCF7, 48 h
Mus musculus = test: Antiinflammatory activity in CD1 mouse assessed as reduction of TPA-induced ear edema per ear after 4 hrs; format: functional, organism-based
[1] = Cytotoxicity against human SKLU1 cells after 48 hrs by sulforhodamine B method; format: functional, cell-based; details: SK-LU-1, 48 h
U-251 = test: Cytotoxicity against human U251 cells after 48 hrs by sulforhodamine B method; format: functional, cell-based; details: U-251, 48 h
PC-3 = test: Cytotoxicity against human PC3 cells after 48 hrs by sulforhodamine B method; format: functional, cell-based; details: PC-3, 48 h
[2] = Cytotoxicity against human HCT15 cells after 48 hrs by sulforhodamine B method; format: functional, cell-based; details: HCT-15, 48 h
K562 = test: Cytotoxicity against human K562 cells after 48 hrs by sulforhodamine B method; format: functional, cell-based; details: K562, 48 h

IC50 (Mus musculus) | SMILES | IC50 (MCF7) | IC50 [1] | IC50 (U-251) | IC50 (PC-3) | IC50 [2] | IC50 (K562)
> 1 µmol | C[C@]12C[C@H](c3ccoc3)OC(=O)[C@H]1CCC1=C(/C=C\CC2=O)C(=O)OC1 | > 10 µM | > 10 µM | > 10 µM | > 10 µM | > 10 µM | > 10 µM
> 1 µmol | C[C@]12C[C@H](c3ccoc3)OC(=O)[C@H]1CC[C@@]13COC(=O)C1=CC=C[C@@]32O | > 10 µM | > 10 µM | > 10 µM | > 10 µM | > 10 µM | > 10 µM
